Literature values as cited in US10828311B2, “Controlled release compositions and their methods of use” (BAYER NEW ZEALAND LTD, priority 2012, dated 2020).
Values after ≈ are worked out from the molar mass of the structure shown.

System: microbes
Settings: for Cloxacillin in New Zealand

MIC90: 0.5 µg/mL (≈ 1.15 µM)
Structure (SMILES): Cc1onc(-c2ccccc2Cl)c1C(=O)N[C@@H]1C(=O)N2[C@@H]1SC(C)(C)[C@@H]2C(=O)O [Cloxacillin, cloxacillin]
